Assay results reported in publication PMC12332667, “Role of Structural Modifications in Peptidomimetic Compounds as Potential Antimicrobial Agents against Staphylococcus aureus and Streptococcus pyogenes: Balancing Bioavailability, Safety, and Antimicrobial Activity” (ACS Omega, 2025).
≈ marks a conversion by molar mass, not a printed value. Where “and” joins values, the source holds several entries; their conditions need not be identical. Equal values may be shown once.

Tests used:
[1] = tested on: immortalized human keratinocytes (HaCaT); test: LDH cytotoxicity test, keratinocytes; format: cell-based; conditions: 48 h
In short: (§1)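 Cytotoxicity as LDH release after 48 h serum-free treatment (50, 100, 150 μg/mL peptidomimetics) of 46BR.1N fibroblasts or HaCaT keratinocytes seeded at 5000 per well. Absorbance 450 nm; untreated set as 0% and Triton X-100 1% as maximal release; Mann–Whitney U test, p ≤ 0.05.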

[2] = Hydrophobicity by reverse-phase chromatography; format: physicochemical; conditions: acetonitrile content in the mobile phase at the retention time
From the text: Reverse-phase chromatography was employed to assess the hydrophobicity characteristics of the peptidomimetics. Hydrophobicity was quantified by determining the acetonitrile content in the mobile phase at the retention time of a peptidyl derivative (Table S2). The least hydrophobic compound (40% acetonitrile) was A-198, which aligns with the calculations of hydrophobicity by SwissADME and pkCSM (Table ). Next in the hydrophobicity sequence were A-197, A-220, A-219, A-174, and A-221, eluting with 42.5-43.9% of acetonitrile. Then there were followed by […], and A-179, with the acetonitrile percentage of 44.8-49.8. The compounds A-176, A-20, A-152, A-134, and A-210 needed over 50% of acetonitrile to be eluted from the column.

[3] = tested on: S. mutans c.i.; test: MIC/MBC broth microdilution, S. mutans; format: cell-based, Streptococcus mutans
In short: (§2)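 Bacteria inoculated at about 10^5 CFU/mL in BHI broth and incubated 18 h at 37 °C with serial dilutions of peptidomimetics, NCCLS microdilution format. MBC taken as lowest concentration leaving no more than 3 colonies (≥99.9% kill); MIC as lowest concentration without obvious growth (≥90% of untreated); solvent controls included.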

[4] = tested on: human dermal fibroblast cell line (46BR.1N); test: XTT cell proliferation assay, fibroblasts; format: cell-based; conditions: for effect on proliferation, in words: 48 and 72 h, 0.01–150 μg/mL
In short: (§3)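 Proliferation was read as XTT absorbance at 490 nm after 4 h of reagent incubation, following 48 or 72 h of peptide exposure in serum-free HG-DMEM (37 °C, 5% CO2). The 72 h arm included a half-medium change with second peptide dose at 48 h. Significance by Mann–Whitney U, p ≤ 0.05.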

[5] = tested on: E. faecalis c.i.; test: MIC/MBC broth microdilution, E. faecalis; format: cell-based, Enterococcus faecalis
In short: as §2

[6] = tested on: fibroblasts (46BR.1N); test: LDH cytotoxicity test, fibroblasts; format: cell-based; conditions: 48 h
In short: as §1

[7] = tested on: E. coli ATCC 25922; test: MIC/MBC broth microdilution, E. coli; format: cell-based, Escherichia coli
In short: as §2

[8] = tested on: S. intemrdius c.i.; test: MIC/MBC broth microdilution, S. intermedius; format: cell-based, Staphylococcus intermedius
In short: as §2

[9] = tested on: immortalized human HaCaT keratinocytes; test: XTT cell proliferation assay, keratinocytes; format: cell-based; conditions: for effect on proliferation, in words: 48 and 72 h, 0.01–150 μg/mL
In short: as §3

[10] = tested on: S. pyogenes ATCC 19615; test: MIC/MBC broth microdilution, S. pyogenes; format: cell-based, Streptococcus pyogenes; conditions: S. pyogenes
In short: as §2

[11] = tested on: K. pneumoniae ATCC 700603; test: MIC/MBC broth microdilution, K. pneumoniae; format: cell-based
In short: as §2

[12] = tested on: S. schleiferi c.i.; test: MIC/MBC broth microdilution, S. schleiferi; format: cell-based, Staphylococcus schleiferi
In short: as §2

[13] = tested on: P. aeruginosa ATCC 10145; test: MIC/MBC broth microdilution, P. aeruginosa; format: cell-based
In short: as §2

[14] = tested on: S. aureus ATCC 43300; test: MIC/MBC broth microdilution, S. aureus; format: cell-based, Staphylococcus aureus; conditions: S. aureus
[15] = tested on: S. cohnii c.i.; test: MIC/MBC broth microdilution, S. cohnii; format: cell-based, Staphylococcus cohnii
In short: as §2

[16] = tested on: P. vulgaris ATCC 6896; test: MIC/MBC broth microdilution, P. vulgaris; format: cell-based, Proteus vulgaris
In short: as §2

[17] = up to 150 μg/mL, A-193 and A-179 after 48 h
[18] = A-196 0.01–10 μg/mL, A-219 above 0.1 μg/mL, A-213 lower concentrations

Compound: CC(C)[C@@H](CNC(=O)C(=Cc1ccccc1)c1ccccc1)NC(=O)[C@H](CCCNC(=N)N)NC(=O)[C@H](CCCNC(=N)N)NC(=O)OCc1ccccc1 [Compound A-179]
- cytotoxicity (LDH), in words ([1]; 50-150 μg/mL): cytotoxic to keratinocytes at all concentrations
- % AcCN (acetonitrile required for elution from the column) [2]: 49.8% and 44.8–49.8%
- MIC ([3]; H2O): > 512 µg/mL
- MIC ([3]; water additive DMSO): > 512 µg/mL
- MIC ([3]; water additive EtOH): > 512 µg/mL
- effect on proliferation, in words ([4]; XTT): negative impact
- antiproliferative effect (decrease vs control) [4, 17]: ~50%
- MBC ([5]; water additive DMSO): 256 µg/mL (≈ 339 µM)
- MIC ([5]; water additive DMSO): 256 µg/mL (≈ 339 µM)
- MBC ([5]; water additive EtOH): 256 µg/mL (≈ 339 µM)
- cytotoxicity (LDH), in words ([6]; 50-150 μg/mL): less pronounced in fibroblasts
- MIC ([7]; H2O): > 512 µg/mL
- MIC ([7]; water additive DMSO): > 512 µg/mL
- MIC ([7]; water additive EtOH): > 512 µg/mL
- MBC ([8]; H2O): 32 µg/mL (≈ 42.4 µM)
- MIC ([8]; H2O): 16 µg/mL (≈ 21.2 µM)
- MBC ([8]; water additive DMSO): 32 µg/mL (≈ 42.4 µM)
- MIC ([8]; water additive DMSO): 16 µg/mL (≈ 21.2 µM)
- MBC ([8]; water additive EtOH): 16 µg/mL (≈ 21.2 µM)
- MIC ([8]; water additive EtOH): 16 µg/mL (≈ 21.2 µM)
- effect on proliferation, in words ([9]; XTT): negative impact
- antiproliferative effect (decrease vs control) [9, 17]: ~50%
- MBC ([10]; H2O): 32 µg/mL (≈ 42.4 µM)
- MIC ([10]; H2O): 16 µg/mL (≈ 21.2 µM)
- MBC ([10]; water additive DMSO): 32 µg/mL (≈ 42.4 µM)
- MIC ([10]; water additive DMSO): 16 µg/mL (≈ 21.2 µM)
- MBC ([10]; water additive EtOH): 32 µg/mL (≈ 42.4 µM)
- MIC ([10]; water additive EtOH): 8 µg/mL (≈ 10.6 µM)
- MIC ([11]; H2O): 512 µg/mL (≈ 678 µM)
- MIC ([11]; water additive DMSO): > 512 µg/mL
- MIC ([11]; water additive EtOH): > 512 µg/mL
- MBC ([12]; water additive EtOH): 256 µg/mL (≈ 339 µM)
- MIC ([13]; H2O): 256 µg/mL (≈ 339 µM)
- MIC ([13]; water additive DMSO): > 512 µg/mL
- MIC ([13]; water additive EtOH): > 512 µg/mL
- MBC ([14]; H2O): 32 µg/mL (≈ 42.4 µM)
- MIC ([14]; H2O): 32 µg/mL (≈ 42.4 µM)
- MBC ([14]; water additive DMSO): 32 µg/mL (≈ 42.4 µM)
- MIC ([14]; water additive DMSO): 16 µg/mL (≈ 21.2 µM)
- MBC ([14]; water additive EtOH): 32 µg/mL (≈ 42.4 µM)
- MIC ([14]; water additive EtOH): 32 µg/mL (≈ 42.4 µM)
- MBC ([15]; H2O): 32 µg/mL (≈ 42.4 µM)
- MIC ([15]; H2O): 16 µg/mL (≈ 21.2 µM)
- MBC ([15]; water additive DMSO): 32 µg/mL (≈ 42.4 µM)
- MIC ([15]; water additive DMSO): 32 µg/mL (≈ 42.4 µM)
- MIC ([15]; water additive EtOH): 32 µg/mL (≈ 42.4 µM)
- MIC ([16]; H2O): > 512 µg/mL
- MIC ([16]; water additive DMSO): > 512 µg/mL
- MIC ([16]; water additive EtOH): > 512 µg/mL

Compound: CC[C@@H](CNC(=O)/C=C/c1ccccc1)NC(=O)[C@H](CC(C)C)NC(=O)[C@H](CCCNC(=N)N)NC(=O)OCc1ccccc1 [Compound A-213]
- cytotoxicity (LDH) at 150 μg/mL ([1]; 150 μg/mL): ~10%
- % AcCN (acetonitrile required for elution from the column) [2]: 54.6%
- MBC ([3]; H2O): 8 µg/mL (≈ 12.9 µM)
- MIC ([3]; H2O): 4 µg/mL (≈ 6.43 µM)
- MBC ([3]; water additive DMSO): 8 µg/mL (≈ 12.9 µM)
- MIC ([3]; water additive DMSO): 4 µg/mL (≈ 6.43 µM)
- MBC ([3]; water additive EtOH): 8 µg/mL (≈ 12.9 µM)
- MIC ([3]; water additive EtOH): 4 µg/mL (≈ 6.43 µM)
- pro-proliferative effect above control [4, 18]: 20–30%
- proliferation relative to control at 150 μg/mL (highest tested concentration) ([4]; XTT, 150 μg/mL): around 25%
- effect on proliferation, in words ([4]; XTT): pro-proliferating effect at lower concentrations followed by an antiproliferative effect at higher concentrations
- MBC ([5]; H2O): 256 µg/mL (≈ 412 µM)
- MIC ([5]; H2O): 256 µg/mL (≈ 412 µM)
- MBC ([5]; water additive DMSO): 256 µg/mL (≈ 412 µM)
- MIC ([5]; water additive DMSO): 256 µg/mL (≈ 412 µM)
- MBC ([5]; water additive EtOH): 256 µg/mL (≈ 412 µM)
- MIC ([5]; water additive EtOH): 256 µg/mL (≈ 412 µM)
- cytotoxicity (LDH) at 150 μg/mL ([6]; 150 μg/mL): ~10%
- MBC ([7]; H2O): 256 µg/mL (≈ 412 µM)
- MIC ([7]; H2O): 256 µg/mL (≈ 412 µM)
- MBC ([7]; water additive DMSO): 512 µg/mL (≈ 823 µM)
- MIC ([7]; water additive DMSO): 256 µg/mL (≈ 412 µM)
- MBC ([7]; water additive EtOH): 256 µg/mL (≈ 412 µM)
- MIC ([7]; water additive EtOH): 256 µg/mL (≈ 412 µM)
- MIC ([8]; H2O): 32 µg/mL (≈ 51.5 µM)
- MIC ([8]; water additive DMSO): 32 µg/mL (≈ 51.5 µM)
- MIC ([8]; water additive EtOH): 32 µg/mL (≈ 51.5 µM)
- pro-proliferative effect above control [9, 18]: 20–30%
- proliferation relative to control at 150 μg/mL (highest tested concentration) ([9]; XTT, 150 μg/mL): around 25%
- effect on proliferation, in words ([9]; XTT): pro-proliferating effect at lower concentrations followed by an antiproliferative effect at higher concentrations
- MIC ([11]; H2O): > 512 µg/mL
- MIC ([11]; water additive DMSO): 512 µg/mL (≈ 823 µM)
- MIC ([11]; water additive EtOH): 512 µg/mL (≈ 823 µM)
- MBC ([12]; H2O): 32 µg/mL (≈ 51.5 µM)
- MIC ([12]; H2O): 32 µg/mL (≈ 51.5 µM)
- MBC ([12]; water additive DMSO): 32 µg/mL (≈ 51.5 µM)
- MIC ([12]; water additive DMSO): 16 µg/mL (≈ 25.7 µM)
- MBC ([12]; water additive EtOH): 32 µg/mL (≈ 51.5 µM)
- MIC ([12]; water additive EtOH): 32 µg/mL (≈ 51.5 µM)
- MIC ([13]; H2O): 512 µg/mL (≈ 823 µM)
- MBC ([13]; water additive DMSO): 512 µg/mL (≈ 823 µM)
- MIC ([13]; water additive DMSO): 256 µg/mL (≈ 412 µM)
- MBC ([13]; water additive EtOH): 256 µg/mL (≈ 412 µM)
- MIC ([13]; water additive EtOH): 256 µg/mL (≈ 412 µM)
- MIC ([16]; H2O): > 512 µg/mL
- MIC ([16]; water additive DMSO): > 512 µg/mL
- MIC ([16]; water additive EtOH): > 512 µg/mL
